From US11066392B2, “Inhibitors of indoleamine 2,3-dioxygenase and methods of their use” (BRISTOL-MYERS SQUIBB COMPANY, priority 2017, dated 2021)

Target: indoleamine 2,3-dioxygenase (IDO) (Homo sapiens, UniProt P14902)
Assay: HeLa cell-based indoleamine 2,3-dioxygenase (IDO) assay (kynurenine production, IFNγ-stimulated)
Conditions: HeLa cells, IFNγ 25 ng/mL, 48 hour incubation; read-out: IDO Hela IC50
Method: Assessment of inhibitor activity in HeLa cell-based indoleamine 2,3-dioxygenase (IDO) assay. HeLa (ATCC® CCL-2) cells were obtained from the ATCC® and cultured in Dulbecco's Modified Eagle Medium supplemented with 4.5 g/L glucose, 4.5 […] sodium pyruvate (#10-013-CV, Corning), 2 mM L-alanyl-L-glutamine dipeptide (#35050-061, Gibco), 100U/mL penicillin, 100 μg/mL streptomycin (#SV30010, HyClone) and 10% fetal bovine serum (#SH30071.03 HyClone). Cells were maintained in a humidified incubator at 37° C. in 5% CO2. […] After 24 hours, the media was aspirated and replaced with media containing IFNγ (#285-IF/CF, R&D Systems) at a final concentration of 25 ng/mL. A serial dilution of each test compound was added to the cells in a total volume of 200 μL of culture medium. After a further 48 hour incubation, 170 μL of supernatant was transferred from each well to a fresh 96-well plate. 12.1 μL of 6.1N trichloroacetic acid (#T0699, Sigma-Aldrich) was added to each well and mixed, followed by incubation at 65° C. for 20 minutes to hydrolyze N-formylkynurenine, the product of indoleamine 2,3-dioxygenase, to kynurenine. The reaction mixture was then centrifuged for 10 mins at 500×g to sediment the precipitate. 100 μL of the supernatant was transferred from each well to a fresh 96-well plate. 100 μl of 2% (w/v) p-dimethylaminobenzaldehyde (#15647-7, Sigma-Aldrich) in acetic acid (#A6283, Sigma-Aldrich) was added to each well mixed and incubated at room temperature for 20 mins. Kynurenine concentrations were determined by measuring absorbance at 480 nm and calibrating against an L-kynurenine (#K8625, Sigma-Aldrich) standard curve using a SPECTRAMAX® M2e microplate reader (Molecular Devices). The percentage activity at each inhibitor concentration was determined and IC50 values assessed using nonlinear regression. Activity for compounds described herein is provided in Table 1, wherein potency levels are provided as follows: (Potency: IDO IC50: […])

Chain of indoleamine 2,3-dioxygenase (IDO) (P14902 whole entry): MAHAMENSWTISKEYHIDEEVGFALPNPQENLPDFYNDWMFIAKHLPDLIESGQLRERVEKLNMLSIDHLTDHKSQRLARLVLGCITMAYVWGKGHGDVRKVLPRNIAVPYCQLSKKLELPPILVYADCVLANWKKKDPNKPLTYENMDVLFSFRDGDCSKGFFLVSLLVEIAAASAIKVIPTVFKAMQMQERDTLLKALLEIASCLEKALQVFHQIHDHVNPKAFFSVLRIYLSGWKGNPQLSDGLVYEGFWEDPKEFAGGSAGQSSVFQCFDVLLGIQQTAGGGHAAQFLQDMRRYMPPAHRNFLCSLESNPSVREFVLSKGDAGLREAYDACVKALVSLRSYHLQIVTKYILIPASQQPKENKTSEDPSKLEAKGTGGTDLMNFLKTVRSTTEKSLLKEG

SMILES | IC50 [nM]
CCC(NC(=O)c1ccc(OC)nc1)C1CCC(c2cccc(C)n2)CC1 (single isomer, unassigned) [Example 46a, 6-methoxy-N-(1-(4-(6-methylpyridin-2-yl)cyclohexyl)propyl)nicotinamide] | 330
CCC(NC(=O)c1ccc(OC)nc1)C1CCC(c2cccc(C(F)(F)F)n2)CC1 (single isomer, unassigned) [Example 47a, 6-methoxy-N-(1-(4-(6-(trifluoromethyl)pyridin-2-yl)cyclohexyl)propyl)nicotinamide] | 180
CCC(NC(=O)c1ccc(OC)nc1)C1CCC(c2cccc(C(F)(F)F)n2)CC1 (single isomer, unassigned) [Example 47d, 6-methoxy-N-(1-(4-(6-(trifluoromethyl)pyridin-2-yl)cyclohexyl)propyl)nicotinamide] | 290
CCC(NC(=O)c1ccc(OC)nc1)C1CCC(c2cccc(OC(F)F)n2)CC1 (single isomer, unassigned) [Example 48a, N-(1-(4-(6-(difluoromethoxy)pyridin-2-yl)cyclohexyl)propyl)-6-methoxynicotinamide] | 360
CCC(NC(=O)c1ccc(OC)nc1)C1CCC(c2cccc(OC(F)F)n2)CC1 (single isomer, unassigned) [Example 48c, N-(1-(4-(6-(difluoromethoxy)pyridin-2-yl)cyclohexyl)propyl)-6-methoxynicotinamide] | 270
CCC(NC(=O)c1ccc(OC)nc1)[C@H]1CC[C@@H](c2nccc(C)n2)CC1 (single isomer, unassigned) [Example 49a, (±)-6-methoxy-N-(1-(4-(4-methylpyrimidin-2-yl)cyclohexyl)propyl)nicotinamide] | 70
CCC(NC(=O)c1ccc(OC)nc1)[C@H]1CC[C@@H](c2nccc(C)n2)CC1 (single isomer, unassigned) [Example 49b, (±)-6-methoxy-N-(1-(4-(4-methylpyrimidin-2-yl)cyclohexyl)propyl)nicotinamide] | 30
CC[C@H](NC(=O)c1ccc(OC)nc1)[C@H]1CC[C@@H](c2cncc(OC)c2)CC1 (single isomer, unassigned) [Example 50a, 6-methoxy-N-(1-(4-(5-methoxypyridin-3-yl)cyclohexyl)propyl)nicotinamide] | 990
CC[C@H](NC(=O)c1ccc(OC)nc1)[C@H]1CC[C@@H](c2cncc(OC)c2)CC1 (single isomer, unassigned) [Example 50b, 6-methoxy-N-(1-(4-(5-methoxypyridin-3-yl)cyclohexyl)propyl)nicotinamide] | 250
CC[C@H](NC(=O)c1ccc(OC)nc1)[C@H]1CC[C@@H](c2cncc(OC)c2)CC1 (single isomer, unassigned) [Example 50d, 6-methoxy-N-(1-(4-(5-methoxypyridin-3-yl)cyclohexyl)propyl)nicotinamide] | 220

The remaining lines, values ahead:

IC50 [nM] | SMILES
390 | COC[C@H](NC(=O)c1ccc(OC)nc1)[C@H]1CC[C@@H](c2ccnc(OC)c2C(F)F)CC1 (single isomer, unassigned) [Example 51b, N-(1-(4-(3-(difluoromethyl)-2-methoxypyridin-4-yl)cyclohexyl)-2-methoxyethyl)-6-methoxynicotinamide]
220 | COC[C@H](NC(=O)c1ccc(OC)nc1)[C@H]1CC[C@@H](c2ccnc(OC)c2C(F)F)CC1 (single isomer, unassigned) [Example 51c, N-(1-(4-(3-(difluoromethyl)-2-methoxypyridin-4-yl)cyclohexyl)-2-methoxyethyl)-6-methoxynicotinamide]
100 | COC[C@H](NC(=O)c1ccc(OC)nc1)[C@H]1CC[C@@H](c2ccnc(OC)c2C(F)F)CC1 (single isomer, unassigned) [Example 51d, N-(1-(4-(3-(difluoromethyl)-2-methoxypyridin-4-yl)cyclohexyl)-2-methoxyethyl)-6-methoxynicotinamide]
10 | CC[C@@H](NC(=O)c1ccc(OC)nc1)[C@H]1CC[C@@H](c2ccnc3ncccc32)CC1 (single isomer, unassigned) [Example 53a, N-(1-(4-(1,8-naphthyridin-4-yl)cyclohexyl)propyl)-6-methoxynicotinamide]
680 | CC[C@@H](NC(=O)c1ccc(OC)nc1)[C@H]1CC[C@@H](c2ccnc3ncccc32)CC1 (single isomer, unassigned) [Example 53b, N-(1-(4-(1,8-naphthyridin-4-yl)cyclohexyl)propyl)-6-methoxynicotinamide]
120 | CC[C@@H](NC(=O)c1ccc(OC)nc1)[C@H]1CC[C@@H](c2ccnc(F)c2C)CC1 (single isomer, unassigned) [Example 56b, N-(1-(4-(2-fluoro-3-methylpyridin-4-yl)cyclohexyl)propyl)-6-methoxynicotinamide]
600 | CC[C@@H](NC(=O)c1ccc(OC)nc1)[C@H]1CC[C@@H](c2ccnc(F)c2C)CC1 (single isomer, unassigned) [Example 56c, N-(1-(4-(2-fluoro-3-methylpyridin-4-yl)cyclohexyl)propyl)-6-methoxynicotinamide]
830 | CCC(NC(=O)c1ccc(OC)nc1)C1CCC(c2ccnc3c(F)cc(F)cc23)CC1 (single isomer, unassigned) [Example 57a]
130 | CCC(NC(=O)c1ccc(OC)nc1)C1CCC(c2ccnc3c(F)cc(F)cc23)CC1 (single isomer, unassigned) [Example 57c]
40 | CCC(NC(=O)c1ccc(OC)nc1)C1CCC(c2ccnc3c(F)cc(F)cc23)CC1 (single isomer, unassigned) [Example 57d]
310 | CCC(NC(=O)c1cnc(OC)nc1)C1CCC(c2ccnc3c(F)cc(F)cc23)CC1 (single isomer, unassigned) [Example 58a]
500 | CCC(NC(=O)c1cnc(OC)nc1)C1CCC(c2ccnc3c(F)cc(F)cc23)CC1 (single isomer, unassigned) [Example 58b]
360 | CCC(NC(=O)c1cnc(OC)nc1)C1CCC(c2ccnc3c(F)cc(F)cc23)CC1 (single isomer, unassigned) [Example 58c]

Same assay, conditions: HeLa cells; potency class; read-out: Patent Potency Hela IC50 A < 10 nM, B > 10 nM, C > 100 nM

SMILES | IC50 [nM]
CCC(NC(=O)c1ccc(OC)nc1)C1CCC(c2cccc(C)n2)CC1 (single isomer, unassigned) [Example 46b, 6-methoxy-N-(1-(4-(6-methylpyridin-2-yl)cyclohexyl)propyl)nicotinamide] | > 100
CCC(NC(=O)c1ccc(OC)nc1)C1CCC(c2cccc(C)n2)CC1 (single isomer, unassigned) [Example 46c, 6-methoxy-N-(1-(4-(6-methylpyridin-2-yl)cyclohexyl)propyl)nicotinamide] | > 100
CCC(NC(=O)c1ccc(OC)nc1)C1CCC(c2cccc(C(F)(F)F)n2)CC1 (single isomer, unassigned) [Example 47b, 6-methoxy-N-(1-(4-(6-(trifluoromethyl)pyridin-2-yl)cyclohexyl)propyl)nicotinamide] | > 100
CCC(NC(=O)c1ccc(OC)nc1)C1CCC(c2cccc(C(F)(F)F)n2)CC1 (single isomer, unassigned) [Example 47c, 6-methoxy-N-(1-(4-(6-(trifluoromethyl)pyridin-2-yl)cyclohexyl)propyl)nicotinamide] | > 100
CCC(NC(=O)c1ccc(OC)nc1)C1CCC(c2cccc(OC(F)F)n2)CC1 (single isomer, unassigned) [Example 48b, N-(1-(4-(6-(difluoromethoxy)pyridin-2-yl)cyclohexyl)propyl)-6-methoxynicotinamide] | > 100
CCC(NC(=O)c1ccc(OC)nc1)C1CCC(c2cccc(OC(F)F)n2)CC1 (single isomer, unassigned) [Example 48d, N-(1-(4-(6-(difluoromethoxy)pyridin-2-yl)cyclohexyl)propyl)-6-methoxynicotinamide] | > 100

Other lines, results leading:

IC50 [nM] | SMILES
< 10 | COC[C@H](NC(=O)c1ccc(OC)nc1)[C@H]1CC[C@@H](c2ccnc(OC)c2C(F)F)CC1 (single isomer, unassigned) [Example 51a, N-(1-(4-(3-(difluoromethyl)-2-methoxypyridin-4-yl)cyclohexyl)-2-methoxyethyl)-6-methoxynicotinamide]
> 100 | CC[C@@H](NC(=O)c1ccc(OC)nc1)[C@H]1CC[C@@H](c2ccnc3ncccc32)CC1 (single isomer, unassigned) [Example 53c, N-(1-(4-(1,8-naphthyridin-4-yl)cyclohexyl)propyl)-6-methoxynicotinamide]
< 10 | CCC(NC(=O)c1ccc(OC)nc1)C1CCC(c2ccnc3c(F)cc(F)cc23)CC1 (single isomer, unassigned) [Example 57b]
